Measured values as given in PubChem BioAssay AID1845205 (Molecular Pharmacology Branch, DTP, NCI, 2023).

System: MPNST multicellular tumor spheroids, viability % test/control
Assay: Anticancer human tumor MPNST cell line growth inhibition;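 note: spheroids exposed to agents for seven days after three days of growth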;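 for viability, T/C: luminescence signal used as surrogate for viable cell amount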
Conditions: for IC50: curve of first compound; for viability, T/C: stronger effect = lower value
Summary of the method: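 Complex tumor spheroids combined malignant cells with endothelial cells and mesenchymal stem cells. DNA-damaging drugs and DNA repair inhibitors were tested alone and in combination, at half-log dilutions down from clinical Cmax (top 10 microM if Cmax unknown), 0.25% DMSO final.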

O=C(c1cc(Cc2n[nH]c(=O)c3ccccc23)ccc1F)N1CCN(C(=O)C2CC2)CC1 + Cn1nnc2c(C(N)=O)ncn2c1=O
IC50 (second compound 1 µM): 17.7 µM | IC50 (second compound 3.16 µM): 22.9 µM | IC50 (second compound 10 µM): 26.4 µM | IC50 (second compound 31.6 µM): 16.4 µM | IC50 (second compound 100 µM): 2.85 µM | viability, T/C (second compound 1 µM, first compound 0.0949 µM): 70.9% | viability, T/C (second compound 1 µM, first compound 0.3 µM): 77.9% | viability, T/C (second compound 1 µM, first compound 0.949 µM): 82% | viability, T/C (second compound 1 µM, first compound 3 µM): 71.9% | viability, T/C (second compound 1 µM, first compound 9.49 µM): 56.1% | viability, T/C (second compound 1 µM, first compound 30 µM): 44.9% | viability, T/C (second compound 3.16 µM, first compound 0.0949 µM): 83.8% | viability, T/C (second compound 3.16 µM, first compound 0.3 µM): 80.2% | viability, T/C (second compound 3.16 µM, first compound 0.949 µM): 92.1% | viability, T/C (second compound 3.16 µM, first compound 3 µM): 77.2% | viability, T/C (second compound 3.16 µM, first compound 9.49 µM): 65.3% | viability, T/C (second compound 3.16 µM, first compound 30 µM): 45.4% | viability, T/C (second compound 10 µM, first compound 0.0949 µM): 118% | viability, T/C (second compound 10 µM, first compound 0.3 µM): 95.2% | viability, T/C (second compound 10 µM, first compound 0.949 µM): 87.6% | viability, T/C (second compound 10 µM, first compound 3 µM): 66.2% | viability, T/C (second compound 10 µM, first compound 9.49 µM): 60.9% | viability, T/C (second compound 10 µM, first compound 30 µM): 48.1% | viability, T/C (second compound 31.6 µM, first compound 0.0949 µM): 82.6% | viability, T/C (second compound 31.6 µM, first compound 0.3 µM): 107% | viability, T/C (second compound 31.6 µM, first compound 0.949 µM): 80.2% | viability, T/C (second compound 31.6 µM, first compound 3 µM): 70.3% | viability, T/C (second compound 31.6 µM, first compound 9.49 µM): 54.1% | viability, T/C (second compound 31.6 µM, first compound 30 µM): 45.8% | viability, T/C (second compound 100 µM, first compound 0.0949 µM): 83.4% | viability, T/C (second compound 100 µM, first compound 0.3 µM): 85.6% | viability, T/C (second compound 100 µM, first compound 0.949 µM): 72.6% | viability, T/C (second compound 100 µM, first compound 3 µM): 49.2% | viability, T/C (second compound 100 µM, first compound 9.49 µM): 46.1% | viability, T/C (second compound 100 µM, first compound 30 µM): 44.7%

[2H]c1nc(C)nc([2H])c1-c1cc(NC[C@@H](C)c2cccc3c(C(=O)NC)ccnc23)ncn1 + Cn1nnc2c(C(N)=O)ncn2c1=O
IC50 (second compound 1 µM): > 10 µM | IC50 (second compound 3.16 µM): > 10 µM | IC50 (second compound 10 µM): > 10 µM | IC50 (second compound 31.6 µM): > 10 µM | IC50 (second compound 100 µM): > 10 µM | viability, T/C (second compound 1 µM, first compound 0.0316 µM): 86.5% | viability, T/C (second compound 1 µM, first compound 0.1 µM): 86.8% | viability, T/C (second compound 1 µM, first compound 0.316 µM): 93.2% | viability, T/C (second compound 1 µM, first compound 1 µM): 101% | viability, T/C (second compound 1 µM, first compound 3.16 µM): 97.3% | viability, T/C (second compound 1 µM, first compound 10 µM): 104% | viability, T/C (second compound 3.16 µM, first compound 0.0316 µM): 114% | viability, T/C (second compound 3.16 µM, first compound 0.1 µM): 100% | viability, T/C (second compound 3.16 µM, first compound 0.316 µM): 76.3% | viability, T/C (second compound 3.16 µM, first compound 1 µM): 91% | viability, T/C (second compound 3.16 µM, first compound 3.16 µM): 89.8% | viability, T/C (second compound 3.16 µM, first compound 10 µM): 104% | viability, T/C (second compound 10 µM, first compound 0.0316 µM): 81.1% | viability, T/C (second compound 10 µM, first compound 0.1 µM): 94.9% | viability, T/C (second compound 10 µM, first compound 0.316 µM): 108% | viability, T/C (second compound 10 µM, first compound 1 µM): 116% | viability, T/C (second compound 10 µM, first compound 3.16 µM): 94.1% | viability, T/C (second compound 10 µM, first compound 10 µM): 108% | viability, T/C (second compound 31.6 µM, first compound 0.0316 µM): 85% | viability, T/C (second compound 31.6 µM, first compound 0.1 µM): 85.9% | viability, T/C (second compound 31.6 µM, first compound 0.316 µM): 79.5% | viability, T/C (second compound 31.6 µM, first compound 1 µM): 96.8% | viability, T/C (second compound 31.6 µM, first compound 3.16 µM): 78.7% | viability, T/C (second compound 31.6 µM, first compound 10 µM): 101% | viability, T/C (second compound 100 µM, first compound 0.0316 µM): 89.5% | viability, T/C (second compound 100 µM, first compound 0.1 µM): 111% | viability, T/C (second compound 100 µM, first compound 0.316 µM): 113% | viability, T/C (second compound 100 µM, first compound 1 µM): 81.1% | viability, T/C (second compound 100 µM, first compound 3.16 µM): 107% | viability, T/C (second compound 100 µM, first compound 10 µM): 89.9%
